Consider three substances from US11712473B2, “Sensitizer-peptide conjugate” (UNIVERSITY OF ULSTER, priority 2017, dated 2023).

In data set [1] the test system is B16-F10-Luc2 melanoma tumour. Put plainly: PDT and SDT treatment of ectopic B16 melanoma tumours in SCID mice (Example 6). It counts as in vivo. To be noted: 100 μL of 100 μM by tail vein injection. How it is done:
B16-F10-Luc2 cells (3×10^5) maintained as described in Example 3, were re-suspended in 100 μL of PBS and implanted into the rear dorsum of SCID mice. Four days after implantation tumour measurements were taken using calipers and tumour volume calculated from the geometric mean diameter using the equation: tumour volume=4πR^3/3. The animals were then randomly distributed into […] (n=5): Group 1 involved untreated animals; Group 2 treated with the RB-(KLAKLAK)2 (SEQ ID NO. 1) conjugate and no light; Group 3 treated with the RB-(KLAKLAK)2 (SEQ ID NO. 1) conjugate and light; Group 4 treated with the RB-(KLAKLAK)2 (SEQ ID NO. 1) conjugate and SDT, and Group 5 treated with RB and light. Following induction of anaesthesia (intraperitoneal injection of Hypnorm/Hypnovel), a 100 μL aliquot of PBS containing 100 μM RB or the RB-(KLAKLAK)2 (SEQ ID NO. 1) conjugate was administered by tail vein injection. Group 3 and Group 5: 30 minutes later tumours were exposed to white light for 3 min (68.4 J/cm^−2). […] After treatment, animals were allowed to recover from anaesthesia and tumour volume was monitored for 12 days with animals retreated using the same conditions on days 1, 2, 7 and 9. The % increase in tumour volume was calculated employing the pre-treatment measurements for each group. […]

Data set [2] has as its system B16-F10-Luc2 melanoma cells. Put plainly: PDT of B16 melanoma cells, bioluminescent assay. It is filed as cell-based, murine. The conditions noted are these: 2.5, 5.0, 10 μM plus white light (22.8 J/cm^2). As for the experimental part:
(§1) Murine melanoma B16-F10 Luc-2 cells were maintained Dulbecco's Modified Eagle Media (DMEM) supplemented with 10% foetal bovine serum (FBS) and 1% penicillin streptomycin. The cells were incubated at 37° C. in a humidified 5% (v/v) CO2 atmosphere. Cells were seeded at a concentration of 4×10^3 cells per well in 96-well tissue culture plate for 24 hours. The medium was removed from each well and the cells incubated for 3 h with drug (100 μL) at concentrations of 2.5 μM, 5.0 μM and 10 μM in media. The drug solution was then removed and selected wells exposed to white light for 1 min (22.8 J/cm^2). Fresh media was then added to each of the wells and cell viability determined 24 h later using a MTT assay. Each experiment was repeated on 3 separate occasions with an n=6 on each occasion.
For the bioluminescent assay, imaging was undertaken using a Xenogen IVIS-100 bioluminescence/fluorescence optical imaging system. Treatments were performed as described above. D-Luciferin at 1.5% w/w was then added to treated wells and bioluminescence intensity was quantified 5 min later using the IVIS-100 system and Living Image Software as per protocol (Caliper LifeSciences). Regions of interest (RoI) were drawn around the wells to evaluate the intensity of signal emitted and expressed photons/second (p/s).

The test system of data set [3] is B16-F10-Luc2 melanoma tumour. Put plainly: PDT of B16 melanoma tumour growth in a mouse model (Example 5). It is filed as in vivo, SCID mice. To be noted: for tumour growth / tumour size, as part of PDT: 100 μL of 100 μM by tail vein injection, white light 3 min (68.4 J/cm^-2) 30 minutes later, retreated days 1, 2, 7, 9. As for the experimental part: In these studies all animals were treated humanely and in accordance with licensed procedures under the UK Animals (Scientific Procedures) Act 1986. B16-F10-Luc2 cells (3×10^5) maintained as described in Example 3, were re-suspended in 100 μL of PBS and implanted into the rear dorsum of SCID mice. Four days after implantation tumour measurements were taken using calipers and tumour volume calculated from the geometric mean diameter using the equation: tumour volume=4πR^3/3. The animals were then randomly distributed into four groups (n=5): Group 1 involved untreated animals; Group 2 treated with the RB-(KLAKLAK)2 (SEQ ID NO. 1) conjugate and no light; Group 3 treated with the RB-(KLAKLAK)2 (SEQ ID NO. 1) conjugate and light; Group 4 treated with RB and light. Following induction of anaesthesia (intraperitoneal injection of Hypnorm/Hypnovel), a 100 μL aliquot of PBS containing 100 μM RB or the RB-(KLAKLAK)2 (SEQ ID NO. 1) conjugate was administered by tail vein injection. Group 3 and Group 4: 30 minutes later tumours were exposed to white light for 3 min (68.4 J/cm^−2). After treatment, animals were allowed to recover from anaesthesia and tumour volume was monitored for 12 days with animals retreated using the same conditions on days 1, 2, 7 and 9. The % increase in tumour volume was calculated employing the pre-treatment measurements for each group. On day 13, the animals were euthanized and the tumours were removed for analysis.

Data set [4] has as its system MCF-7 invasive breast ductal carcinoma cells. Put plainly: PDT of MCF-7 breast cancer cells, MTT cell viability assay. It is filed as cell-based, Human. The conditions noted are these: 0.05, 0.1, 0.5, 1 μM, 3 h incubation, white light 1 min (22.8 J/cm^2), viability 24 h later. As for the experimental part: (§2) Human MCF-7 invasive breast ductal carcinoma cells were maintained Dulbecco's Modified Eagle Media (DMEM) supplemented with 10% foetal bovine serum (FBS) and 1% penicillin streptomycin. The cells were incubated at 37° C. in a humidified 5% (v/v) CO2 atmosphere. Cells were seeded at a concentration of 5×10^3 cells per well in 96-well tissue culture plate for 24 hours. The medium was removed from each well and the cells incubated for 3 h with drug (100 μL) at concentrations of 0.05 μM, 0.1 μM, 0.5 μM and 1 μM in media. The drug solution was then removed and the cells washed twice with PBS, fresh media was added and selected wells exposed to white light for 1 min (22.8 J/cm^2). Fresh media was then added to each of the wells and cell viability determined 24 h later using a MTT assay. Each experiment was repeated on 3 separate occasions with an n=6 on each occasion.

The test system of data set [5] is B16-F10-Luc2 melanoma cells. Put plainly: PDT of B16 melanoma cells, MTT cell viability assay. To be noted: 2.5, 5.0, 10 μM, 3 h incubation, white light 1 min (22.8 J/cm^2), viability 24 h later. It counts as cell-based, murine. As for the experimental part:
as §1

Data set [6] has as its system PANC-1 epithelioid carcinoma cells. Put plainly: PDT of PANC-1 pancreatic cancer cells, MTT cell viability assay. It is filed as cell-based, Human. To be noted: 0.05, 0.1, 0.5, 1 μM, 3 h incubation, white light 1 min (22.8 J/cm^2), viability 24 h later. As for the experimental part: as §2, with “PANC-1 epithelioid” for “MCF-7 invasive breast ductal”
The subject of data set [7] is B16-F10-Luc2 melanoma cells. Nature of the data set: SDT of B16 melanoma cells, MTT cell viability assay. It is filed as cell-based, murine. The conditions noted are these: 2.5, 5.0, 10 μM, 3 hours incubation, ultrasound, viability 24 hours later.

Entries after “also recorded” stand apart in the source; their conditions may differ. RB = Rose Bengal carboxylic acid derivative, attached to the N-terminus

In the case of “RB-(KLAKLAK)2: conjugate of Rose Bengal and all-D peptide Lys-Leu-Ala-Lys-Leu-Ala-Lys-Lys-Leu-Ala-Lys-Leu-Ala-Lys (SEQ ID NO: 1), no cysteine (KLAKLAKKLAKLAK; not fully specified; Rose Bengal conjugate; all-D amino acids)”, in data set [1] (ultrasound 3.5 min, 3 W cm-2, 1 MHz, duty cycle 30%), the “tumour growth, as part of SDT” value was “effectively reduced B16-F10-Luc2 melanoma tumour growth”. Further, the “tumour growth, as part of PDT” value in data set [1] (white light 3 min (68.4 J/cm^-2) 30 minutes later) is on record as “effectively reduced B16-F10-Luc2 melanoma tumour growth; also recorded: PDT was superior”.

For “RB-C(KLAKLAK)2: conjugate of Rose Bengal and peptide Cys-Lys-Leu-Ala-Lys-Leu-Ala-Lys-Lys-Leu-Ala-Lys-Leu-Ala-Lys (SEQ ID NO: 2) ({RB}-CKLAKLAKKLAKLAK-NH2; also: Rose Bengal conjugate, site not given here)”, in data set [2], the “bioluminescent intensity relative to the control” value was “significant reduction in bioluminescence”. In addition, the “tumour growth / tumour size, as part of PDT” value is “effectively reduced B16-F10-Luc2 melanoma tumour growth; also recorded: inhibited tumour growth to a greater extent” in data set [3]; “significant reduction in tumour size” in data set [3] (listed as conjugate of Rose Bengal and a peptide having the amino acid sequence defined by). Also, in data set [3] (as stated in the result sentence of Example 5), the “tumour growth, as part of SDT” value is given as “effectively reduced B16-F10-Luc2 melanoma tumour growth”. Moreover, the figures for the “cell viability (MTT), cell killing as part of PDT” value in data set [4] and in data set [6] were “effectively killed MCF-7 invasive breast ductal carcinoma cells” and “effectively killed PANC-1 epithelioid carcinoma cells”, respectively. In addition, the “cell viability (MTT), cytotoxic effect as part of PDT” value in data set [5] was “significantly better than photodynamic therapy using Rose Bengal alone; also recorded: effectively killed B16-F10-Luc2 melanoma cells”; in data set [5] (listed as RB-C(KLAKLAK)2 L enantiomer) it was “more potent cytotoxic effect than the RB-C(KLAKLAK)2 (SEQ ID NO. 2) D enantiomer”. Besides, the “cell viability (MTT), cell killing as part of SDT” value in data set [7] was “effectively killed B16-F10-Luc2 melanoma cells”.

In the case of “RB-C(KLAKLAK): conjugate of Rose Bengal and peptide Cys-Lys-Leu-Ala-Lys-Leu-Ala-Lys (SEQ ID NO: 6) ({RB}-CKLAKLAK-NH2; not fully specified)”, the “cell viability (MTT), cell killing as part of PDT” value is given as “effectively killed MCF-7 invasive breast ductal carcinoma cells” in data set [4] and “effectively killed PANC-1 epithelioid carcinoma cells” in data set [6].
